Test results: US20230233569A1 (Revolution Medicines, Inc., priority 2020, published 2023)
Read-outs that look alike come from different tables or passages of the source.

What was measured:
Capan-1 (K-Ras G12V) = assay: CellTiter-Glo cell viability assay, 5-day treatment; type: cell-based; details: Homo sapiens, CAPAN-1, 120 h, 5-day treatment; read-out: Capan-1 Cell Viability assay data (K-Ras G12V, IC50)
Procedure: (§1) Protocol: CellTiter-Glo® Cell Viability Assay
(§2) Note—The following protocol describes a procedure for monitoring cell viability of K-Ras mutant cancer cell lines in response to a compound of the invention. Other RAS isoforms may be employed, though the number of cells to be seeded will vary based on cell line used.
(§3) Test compounds (132.5 nL) were directly dispensed into the assay plates containing cells. […] On day 5, assay plates and their contents were equilibrated to room temperature for approximately 30 minutes. […] Luminescence was measured using the PerkinElmer Enspire. Data were normalized by the following: (Sample signal/Avg. DMSO)*100. The data were fit using a four-parameter logistic fit.
as §3, with “nl)” for “nL)”

KRAS G12C = KRAS G12C (Homo sapiens, UniProt P01116+P62937, G12C); assay: Disruption of BRAF RBD interaction with Ras (FRET / MOA assay, with Cyclophilin A); type: biochemical
KRAS G12C, sequence (P01116 1-169 isoform P01116-2 G12C): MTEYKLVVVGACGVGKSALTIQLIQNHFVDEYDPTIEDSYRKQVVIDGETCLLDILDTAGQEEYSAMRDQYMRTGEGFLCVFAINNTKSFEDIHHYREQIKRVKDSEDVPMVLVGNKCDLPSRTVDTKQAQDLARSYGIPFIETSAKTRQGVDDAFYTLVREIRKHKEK
KRAS G12C, sequence (P62937 whole entry): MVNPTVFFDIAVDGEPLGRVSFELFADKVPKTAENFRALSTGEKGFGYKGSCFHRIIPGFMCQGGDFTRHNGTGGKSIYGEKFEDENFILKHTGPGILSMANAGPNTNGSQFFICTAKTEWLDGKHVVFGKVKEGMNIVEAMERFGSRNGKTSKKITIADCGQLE
Source text: (§4) This protocol may also be executed substituting other Ras proteins or nucleotides.
(§5) The purpose of this biochemical assay was to measure the ability of test compounds to facilitate ternary complex formation between a nucleotide-loaded K-Ras isoform and Cyclophilin A; the resulting ternary complex disrupts binding to a BRAF^RBD construct, inhibiting K-Ras signaling through a RAF effector. Data is reported as IC50 values.
(§6) Compound was present in plate wells as a 10-point 3-fold dilution series starting at a final concentration of 30 μM. After incubation at 25° C. for 3 hours, a mixture of Anti-His Eu-W1024 and anti-GST allophycocyanin was then added to assay sample wells at final concentrations of 10 nM and 50 nM, respectively, and the reaction incubated for an additional 1.5 hours. […] Compounds that facilitate disruption of a K-Ras:RAF complex were identified as those eliciting a decrease in the TR-FRET ratio relative to DMSO control wells.
as §5, with “BRAF^RBDD” for “BRAF^RBD”

KRAS G12D = KRAS G12D (Homo sapiens, UniProt P01116+P62937, G12D); assay: as above; type: biochemical
KRAS G12D, sequence (P01116 1-169 isoform P01116-2 G12D limits assumed): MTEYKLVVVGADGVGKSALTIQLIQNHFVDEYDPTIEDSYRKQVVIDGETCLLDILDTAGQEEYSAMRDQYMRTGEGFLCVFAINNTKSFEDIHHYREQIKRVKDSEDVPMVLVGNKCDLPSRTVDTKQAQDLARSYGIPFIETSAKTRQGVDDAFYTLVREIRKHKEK
KRAS G12D, sequence (P62937 whole entry): as the sequence (P62937 whole entry) above
Source text: as §4, §5, §6
as §5, with “BRAF^RBDD” for “BRAF^RBD”

KRAS G12S = KRAS G12S (Homo sapiens, UniProt P01116+P62937, G12S); assay: as above; type: biochemical
KRAS G12S, sequence (P01116 1-169 isoform P01116-2 G12S limits assumed): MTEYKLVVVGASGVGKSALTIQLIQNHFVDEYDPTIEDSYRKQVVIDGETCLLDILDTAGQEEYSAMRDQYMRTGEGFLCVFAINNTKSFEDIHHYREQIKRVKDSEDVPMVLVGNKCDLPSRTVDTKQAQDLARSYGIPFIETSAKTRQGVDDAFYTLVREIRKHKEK
KRAS G12S, sequence (P62937 whole entry): as the sequence (P62937 whole entry) above
Source text: as §4, §5, §6
as §5, with “BRAF^RBDD” for “BRAF^RBD”

KRAS G12V = KRAS G12V (Homo sapiens, UniProt P01116+P62937, G12V); assay: as above; type: biochemical
KRAS G12V, sequence (P01116 1-169 isoform P01116-2 G12V limits assumed): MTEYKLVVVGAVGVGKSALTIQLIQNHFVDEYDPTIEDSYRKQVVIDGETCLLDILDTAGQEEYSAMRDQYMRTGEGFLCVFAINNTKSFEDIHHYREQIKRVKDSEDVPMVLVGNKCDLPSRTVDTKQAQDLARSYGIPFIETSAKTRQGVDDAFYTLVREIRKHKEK
KRAS G12V, sequence (P62937 whole entry): as the sequence (P62937 whole entry) above
Source text: as §4, §5, §6
as §5, with “BRAF^RBDD” for “BRAF^RBD”

KRAS G13C = KRAS G13C (Homo sapiens, UniProt P01116+P62937, G13C); assay: as above; type: biochemical
KRAS G13C, sequence (P01116 1-169 isoform P01116-2 G13C): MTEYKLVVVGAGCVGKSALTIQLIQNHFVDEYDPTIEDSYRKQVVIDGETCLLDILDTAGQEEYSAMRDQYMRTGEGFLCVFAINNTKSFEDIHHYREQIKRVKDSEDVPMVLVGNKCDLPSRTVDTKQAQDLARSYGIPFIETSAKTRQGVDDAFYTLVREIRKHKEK
KRAS G13C, sequence (P62937 whole entry): as the sequence (P62937 whole entry) above
Source text: as §4, §5, §6
as §5, with “BRAF^RBDD” for “BRAF^RBD”

KRAS G13D = KRAS G13D (Homo sapiens, UniProt P01116+P62937, G13D); assay: as above; type: biochemical
KRAS G13D, sequence (P01116 1-169 isoform P01116-2 G13D limits assumed): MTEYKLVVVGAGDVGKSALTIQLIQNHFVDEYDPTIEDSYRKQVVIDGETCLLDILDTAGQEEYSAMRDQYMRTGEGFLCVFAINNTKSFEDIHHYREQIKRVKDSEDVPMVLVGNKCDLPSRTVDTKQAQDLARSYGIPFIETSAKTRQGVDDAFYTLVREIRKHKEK
KRAS G13D, sequence (P62937 whole entry): as the sequence (P62937 whole entry) above
Source text: as §4, §5, §6
as §5, with “BRAF^RBDD” for “BRAF^RBD”

KRAS WT = KRAS WT (Homo sapiens, UniProt P01116+P62937); assay: as above; type: biochemical
KRAS WT, sequence (P01116 1-169 isoform P01116-2 limits assumed): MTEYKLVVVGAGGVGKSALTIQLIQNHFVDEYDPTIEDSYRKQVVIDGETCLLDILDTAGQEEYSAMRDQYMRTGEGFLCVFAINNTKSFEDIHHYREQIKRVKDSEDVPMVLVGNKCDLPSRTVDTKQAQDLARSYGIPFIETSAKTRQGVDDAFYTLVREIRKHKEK
KRAS WT, sequence (P62937 whole entry): as the sequence (P62937 whole entry) above
Source text: as §4, §5, §6
as §5, with “BRAF^RBDD” for “BRAF^RBD”

NRAS G12C = NRAS G12C (Homo sapiens, UniProt P01111+P62937, G12C); assay: as above; type: biochemical
NRAS G12C, sequence (P01111 whole entry G12C): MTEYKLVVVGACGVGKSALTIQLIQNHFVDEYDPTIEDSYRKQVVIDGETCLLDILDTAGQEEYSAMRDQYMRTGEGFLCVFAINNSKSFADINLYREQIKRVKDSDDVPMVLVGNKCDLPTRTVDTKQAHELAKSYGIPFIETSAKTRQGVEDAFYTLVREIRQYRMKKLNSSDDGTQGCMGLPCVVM
NRAS G12C, sequence (P62937 whole entry): as the sequence (P62937 whole entry) above
Source text: as §4, §5, §6
as §5, with “BRAF^RBDD” for “BRAF^RBD”

NCI-H358 (K-Ras G12C) = assay: CellTiter-Glo cell viability assay, 5-day treatment; type: cell-based; details: Homo sapiens, NCI-H358, 120 h, 5-day treatment; read-out: H358 Cell Viability assay data (K-Ras G12C, IC50)
Procedure: as §1, §2, §3
as §3, with “nl)” for “nL)”

[1] = read-out: KRAS G12C FRET data, IC50
[2] = read-out: KRAS G12D FRET data, IC50
[3] = read-out: KRAS G12S FRET data, IC50
[4] = KRAS G12V, read-out: KRAS G12V FRET data IC50
[5] = read-out: KRAS G13C FRET data, IC50
[6] = KRAS G13D, read-out: KRAS G13D FRET data IC50
[7] = KRAS WT, read-out: KRAS WT FRET data IC50
[8] = NRAS G12C, read-out: NRAS G12C FRET data IC50

Row | IC50 (NCI-H358 (K-Ras G12C)) [µM] | SMILES | IC50 (Capan-1 (K-Ras G12V)) [µM] | IC50 (KRAS G12C; [1]) [µM] | IC50 (KRAS G12D; [2]) [µM] | IC50 (KRAS G12S; [3]) [µM] | IC50 (KRAS G12V; [4]) [µM] | IC50 (KRAS G13C; [5]) [µM] | IC50 (KRAS G13D; [6]) [µM] | IC50 (KRAS WT; [7]) [µM] | IC50 (NRAS G12C; [8]) [µM] | IC50 (KRAS G12C; KRAS G12C FRET data, IC50) [µM] | IC50 (KRAS G12D; KRAS G12D FRET data, IC50) [µM] | IC50 (KRAS G12S; KRAS G12S FRET data, IC50) [µM] | IC50 (KRAS G12V; KRAS G12V FRET data IC50, KRAS G12V) [µM] | IC50 (KRAS G13C; KRAS G13C FRET data, IC50) [µM] | IC50 (KRAS G13D; KRAS G13D FRET data IC50, KRAS G13D) [µM] | IC50 (KRAS WT; KRAS WT FRET data IC50, KRAS WT) [µM] | IC50 (NRAS G12C; NRAS G12C FRET data IC50, NRAS G12C) [µM]
1 | – | CCn1c(-c2cccnc2[C@@H]2CCCO2)c2c3cc(ccc31)-c1csc(n1)C[C@H](NC(=O)[C@H](C(C)C)N(C)C(=O)N1CC(N(C)C)C1)C(=O)N1CCC[C@H](N1)C(=O)OCC(C)(C)C2 (atropisomer, axis not shown) [Example A327] | 1 to 10 | > 10 | > 10 | > 10 | > 10 | > 10 | > 10 | > 10 | > 10 | – | – | – | – | – | – | – | –
2 | – | CCn1c(-c2cccnc2[C@H](C)OC)c2c3cc(ccc31)-c1cc(O)cc(c1)C[C@H](NC(=O)[C@@H](NC(C)=O)C(C)(C)OC)C(=O)N1CCC[C@H](N1)C(=O)OCC(C)(C)C2 (racemic) [Example A172] | > 10 | > 10 | > 10 | > 10 | > 10 | 1 to 10 | > 10 | > 10 | > 10 | – | – | – | – | – | – | – | –
3 | – | CCn1c(-c2cccnc2[C@H](C)OC)c2c3cc(ccc31)-c1cc(O)cc(c1)C[C@H](NS(=O)(=O)CC1OCCC13CNC3)C(=O)N1CCC[C@H](N1)C(=O)OCC(C)(C)C2 (mixture of isomers) [Example A187] | > 10 | > 10 | > 10 | > 10 | > 10 | > 10 | > 10 | > 10 | > 10 | – | – | – | – | – | – | – | –
4 | – | CCn1c(-c2cnccc2COC)c2c3cc(ccc31)-c1cc(O)cc(c1)C[C@H](NC(=O)[C@H](C(C)C)N(C)C(=O)[C@H]1CCN(C(=O)C(C)(C)N(C)C)C1)C(=O)N1CCC[C@H](N1)C(=O)OCC(C)(C)C2 [Example A8] | 1 to 10 | – | – | – | – | – | – | – | – | – | – | – | – | – | – | – | –
5 | 1 to 10 | CCn1c(-c2cnccc2COC)c2c3cc(ccc31)-c1cc(O)cc(c1)C[C@H](NC(=O)[C@@H](OC(=O)N(C)C)C(C)C)C(=O)N1CCC[C@H](N1)C(=O)OCC(C)(C)C2 [Example A53] | – | 0.1 to 1 | > 10 | 1 to 10 | 1 to 10 | 1 to 10 | 1 to 10 | 1 to 10 | 1 to 10 | – | – | – | – | – | – | – | –
6 | 1 to 10 | CCn1c(-c2cccnc2[C@H](C)OC)c2c3cc(ccc31)-c1cccc(c1)C[C@H](NC(=O)[C@H](C(C)C)N(C)C(=O)[C@H]1CCN(C(C)=O)C1)C(=O)N1CCC[C@H](N1)C(=O)OCC(C)(C)C2 [Example A60] | – | 1 to 10 | > 10 | 1 to 10 | 1 to 10 | > 10 | > 10 | 1 to 10 | 1 to 10 | – | – | – | – | – | – | – | –
7 | 1 to 10 | CCn1c(-c2cnccc2COC)c2c3cc(ccc31)-c1cc(O)cc(c1)C[C@H](NC(=O)[C@H](C(C)C)N(C)C(=O)CN1CCOCC1)C(=O)N1CCC[C@H](N1)C(=O)OCC(C)(C)C2 [Example A65] | – | 0.1 to 1 | 1 to 10 | 0.1 to 1 | 1 to 10 | 0.1 to 1 | 0.1 to 1 | 0.1 to 1 | 0.1 to 1 | – | – | – | – | – | – | – | –

Row | SMILES | IC50 (NCI-H358 (K-Ras G12C)) [µM] | IC50 (Capan-1 (K-Ras G12V)) [µM] | IC50 (KRAS G12C; [1]) [µM] | IC50 (KRAS G12D; [2]) [µM] | IC50 (KRAS G12S; [3]) [µM] | IC50 (KRAS G12V; [4]) [µM] | IC50 (KRAS G13C; [5]) [µM] | IC50 (KRAS G13D; [6]) [µM] | IC50 (KRAS WT; [7]) [µM] | IC50 (NRAS G12C; [8]) [µM] | IC50 (KRAS G12C; KRAS G12C FRET data, IC50) [µM] | IC50 (KRAS G12D; KRAS G12D FRET data, IC50) [µM] | IC50 (KRAS G12S; KRAS G12S FRET data, IC50) [µM] | IC50 (KRAS G12V; KRAS G12V FRET data IC50, KRAS G12V) [µM] | IC50 (KRAS G13C; KRAS G13C FRET data, IC50) [µM] | IC50 (KRAS G13D; KRAS G13D FRET data IC50, KRAS G13D) [µM] | IC50 (KRAS WT; KRAS WT FRET data IC50, KRAS WT) [µM] | IC50 (NRAS G12C; NRAS G12C FRET data IC50, NRAS G12C) [µM]
8 | CCn1c(-c2cnccc2COC)c2c3cc(ccc31)-c1cc(O)cc(c1)C[C@H](NC(=O)[C@H](C(C)C)N(C)C(=O)OC1CCOC1)C(=O)N1CCC[C@H](N1)C(=O)OCC(C)(C)C2 (stereo partly drawn) [Example A50, oxolan-3-yl-N-[(1S)-1-{[(8S,14S)-22-ethyl-4-hydroxy-21-[4-(methoxymethyl)pyridin-3-yl]-18,18-dimethyl-9,15-dioxo-16-oxa-10,22,28-triazapentacyclo[18.5.2.1^2,6.1^10,14.0^23,27]nonacosa-1(26),2,4,6(29),20,23(27),24-heptaen-8-yl]carbamoyl}-2-methylpropyl]-N-methylcarbamate] | 1 to 10 | – | – | – | – | – | – | – | – | – | 0.1 to 1 | 1 to 10 | 1 to 10 | 1 to 10 | 1 to 10 | 1 to 10 | 0.1 to 1 | 1 to 10
